Measurements reported in article PMC9960553, ““Dual Anta-Inhibitors” of the A2A Adenosine Receptor and Casein Kinase CK1delta: Synthesis, Biological Evaluation, and Molecular Modeling Studies” (Pharmaceuticals, 2023).
Where “and” joins values, the source holds several entries; their conditions need not be identical. Equal entries are not always repeated.

Legend:
human recombinant A2AAR = target: T1, human recombinant A2AAR (Homo sapiens, UniProt P29274); assay: [3H]NECA displacement binding in CHO cell membranes; conditions: mean ± standard error, read-out: KiA2A
T1 construct: expressed in transfected cells; host or cells: CHO cells (membranes)
T1 sequence (P29274 whole entry): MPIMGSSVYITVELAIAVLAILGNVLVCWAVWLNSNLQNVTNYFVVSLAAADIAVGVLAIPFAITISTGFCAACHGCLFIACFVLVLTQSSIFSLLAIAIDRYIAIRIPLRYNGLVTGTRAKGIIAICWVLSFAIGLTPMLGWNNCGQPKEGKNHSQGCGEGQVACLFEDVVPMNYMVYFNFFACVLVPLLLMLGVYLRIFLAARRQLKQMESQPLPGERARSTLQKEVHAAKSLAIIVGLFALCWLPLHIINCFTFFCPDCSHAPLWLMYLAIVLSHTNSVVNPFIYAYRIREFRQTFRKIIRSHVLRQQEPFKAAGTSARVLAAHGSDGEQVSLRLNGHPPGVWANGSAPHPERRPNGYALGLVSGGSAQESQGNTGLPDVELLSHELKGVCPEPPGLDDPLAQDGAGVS
Description: (§1) Compounds 5, 6, 8–12, 15–21, and 23–25 were evaluated in binding studies at human recombinant A1, A2A, and A3 ARs, stably transfected in Chinese hamster ovary (CHO) cells. [^3H]CCPA (2-chloro-N^6-cyclopentylAdo), [^3H]NECA (5’-N-ethylcarboxamidoAdo), and [^3H]HEMADO (2-hexynyl-N^6-methylAdo) were used as the, respective, radioligands. All compounds were also tested at the A2BARs by inhibition of NECA-stimulated adenylyl cyclase activity, using the GloSensor cAMP assay, but none of them were active at a concentration up to 30 μM [35]. The results, together with the data of the reference adenine derivative 1, are reported in Table 2 as Ki values in μM (± standard errors). In the table, the IC50 values (μM) of the CK1δ inhibitory activity are also indicated. […] We called the compounds endowed with receptor antagonist behavior combined with an enzyme inhibitory activity “dual anta-inhibitors”.
(§2) All of the pharmacological methods followed the procedures as described earlier. In brief, the membranes for radioligand binding were prepared from CHO cells stably transfected with human adenosine receptor subtypes through two centrifugations at different speeds. The first low-speed […] centrifugation allowed for the removal of cell fragments and nuclei, while the second, performed at high speed (100,000× g), allowed for the precipitation of the crude membrane fractions. The resulting membrane pellet was resuspended in the buffer used for the respective binding experiments, frozen in liquid nitrogen, and stored in aliquots at −80 °C.
(§3) The binding affinity of the novel compounds was evaluated using radioligand competition experiments in CHO cells stably expressing hA1AR, hA2AAR, hA3AR subtypes, as early described. Results were expressed as Ki values (dissociation constants), which were calculated with the program GraphPad (GraphPad Software, San Diego, CA, USA). Each concentration was tested three–five times in duplicate and the values given as the mean ± standard error (S.E.). The potency of compounds at the hA2BAR (expressed on CHO cells) was determined through a GloSensor cAMP Assay.

human recombinant A3AR = target: T2, human recombinant A3AR (Homo sapiens, UniProt P0DMS8); assay: [3H]HEMADO displacement binding in CHO cell membranes; conditions: mean ± standard error, read-out: KiA3
T2 construct: expressed in transfected cells; host or cells: CHO cells (membranes)
T2 sequence (P0DMS8 1-318): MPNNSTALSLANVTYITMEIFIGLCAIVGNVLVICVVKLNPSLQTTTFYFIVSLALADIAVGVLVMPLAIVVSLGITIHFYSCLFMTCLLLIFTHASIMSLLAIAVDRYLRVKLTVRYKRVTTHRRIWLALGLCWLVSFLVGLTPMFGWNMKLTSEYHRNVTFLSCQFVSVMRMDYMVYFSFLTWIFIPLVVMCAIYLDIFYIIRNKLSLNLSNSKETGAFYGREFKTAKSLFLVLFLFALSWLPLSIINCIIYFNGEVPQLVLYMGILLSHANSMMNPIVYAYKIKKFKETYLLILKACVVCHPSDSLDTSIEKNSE
Description: as §1, §2, §3

human recombinant A1AR = target: T3, human recombinant A1AR (Homo sapiens, UniProt P30542); assay: [3H]CCPA displacement binding in CHO cell membranes; conditions: mean ± standard error, read-out: KiA1
T3 construct: expressed in transfected cells; host or cells: CHO cells (membranes)
T3 sequence (P30542 1-326): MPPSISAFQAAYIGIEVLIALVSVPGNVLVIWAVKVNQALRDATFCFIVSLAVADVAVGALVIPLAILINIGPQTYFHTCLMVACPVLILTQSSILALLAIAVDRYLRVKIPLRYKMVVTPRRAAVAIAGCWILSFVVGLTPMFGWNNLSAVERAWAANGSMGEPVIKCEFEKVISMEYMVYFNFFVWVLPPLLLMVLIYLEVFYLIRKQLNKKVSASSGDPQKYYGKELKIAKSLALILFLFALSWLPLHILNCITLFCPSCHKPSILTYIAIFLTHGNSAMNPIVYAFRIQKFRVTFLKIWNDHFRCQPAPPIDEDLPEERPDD
Description: as §1, §2, §3

truncated CK1δ = target: T4, truncated CK1δ (Homo sapiens, UniProt P48730); assay: CK1δ luminescent kinase assay (Kinase-Glo); assay type: biochemical; conditions: for remaining activity at 10 µM: read-out: % Residual Activity at 10 μM ± sd; for remaining activity at 40 µM: compound at 40 μM, read-out: % Residual Activity at 40 μM ± sd; for IC50: truncated CK1δ, ATP 2 μM, read-out: IC50 (μM), CK1δ inhibition
T4 construct: recombinant human, GST-tagged, aa 1-294; GST; purchased Merck Millipore, Merck KGaA, Darmstadt, Germany
T4 sequence (P48730 1-294): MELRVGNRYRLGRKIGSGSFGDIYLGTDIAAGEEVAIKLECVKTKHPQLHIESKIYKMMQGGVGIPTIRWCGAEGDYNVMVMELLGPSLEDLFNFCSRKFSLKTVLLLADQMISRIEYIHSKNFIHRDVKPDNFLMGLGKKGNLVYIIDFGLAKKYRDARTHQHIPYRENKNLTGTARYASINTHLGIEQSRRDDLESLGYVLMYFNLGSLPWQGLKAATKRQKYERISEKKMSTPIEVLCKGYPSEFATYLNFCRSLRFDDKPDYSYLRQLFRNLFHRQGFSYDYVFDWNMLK
Description: Luminescent assays were performed in white 96-well plates in a 40 μL final volume with buffer containing 50 mM HEPES (pH 7.5), 1 mM EDTA, 1 mM EGTA, and 15 mM MgCl2. In a typical assay, 10 μL of inhibitor solution (desired concentrations were obtained by diluting a starting 10 mM solution in DMSO) and 10 μL of enzyme solution were added to the well, followed by 20 μL of assay buffer containing casein substrate (Sigma-Aldrich, Merck KGaA, Darmstadt, Germany, casein solution from bovine milk, 5% in water) and ATP, at a final concentration of 0.05% and 2 μM, respectively. […] After 60 min of incubation at 30 °C, the enzymatic reactions were stopped with the addition of 40 μL of KinaseGlo reagent. […] Data were analyzed using Excel and GraphPad Prism software (version 8.0).

[1] = CK1δ residual activity, compound at 10 μM

A Ki (human recombinant A2AAR) of 465 ± 129 nM, a Ki (human recombinant A3AR) of 631 ± 62 nM and a Ki (human recombinant A1AR) of 1890 ± 160 nM were found for `Nc1nc(Cl)nc2c1ncn2C1CCCC1` [Compound 1, 2-chloro-9-cyclopentyl-9H-purin-6-amine] in this work. It also gave a melting point of 121 to 122 °C, a remaining activity at 10 µM (truncated CK1δ; [1]) of 13 ± 7.4% and a remaining activity at 40 µM (truncated CK1δ; CK1δ residual activity) of 0.7 ± 0.4%. For the same molecule, the IC50 (truncated CK1δ) was 5.25 µM and 5.2 µM.
A Ki (human recombinant A2AAR) of 558 ± 151 nM, a Ki (human recombinant A1AR) of 1530 ± 265 nM and a melting point of 117 to 119 °C were found for `Nc1nc(Cl)nc2c1ncn2C1CCC1` [Compound 5, 2-chloro-9-cyclobutyl-9H-purin-6-amine] in this work. The remaining activity at 10 µM (truncated CK1δ; [1]) was 37 ± 3.8%, the remaining activity at 40 µM (truncated CK1δ; CK1δ residual activity) was 43 ± 3.2% and the IC50 (truncated CK1δ) was 5.25 ± 0.9 µM.
In the case of `Nc1nc(Cl)nc2c1ncn2C1CCCCC1` [Compound 6, 2-chloro-9-cyclohexyl-9H-purin-6-amine], the melting point is reported as 125 to 126 °C, the “% Residual Activity at 10 μM ± sd” value (truncated CK1δ; CK1δ residual activity, compound at 10 μM, 10 µM) is reported as 52 ± 3.0% and the remaining activity at 10 µM (truncated CK1δ; [1]) is reported as over 50%. The remaining activity at 40 µM (truncated CK1δ; CK1δ residual activity) was 30 ± 0.2% and the IC50 (truncated CK1δ) was over 10 µM.
A Ki (human recombinant A2AAR) of 7 nM, a Ki (human recombinant A3AR) of 140 ± 35 nM and a Ki (human recombinant A1AR) of 118 ± 10 nM were found for `Nc1nc(Cl)nc2c1nc(-c1ccco1)n2C1CCCC1` [Compound 8, 2-chloro-9-cyclopentyl-8-(furan-2-yl)-9H-purin-6-amine] in this work. The melting point was 152 to 153 °C, the remaining activity at 40 µM (truncated CK1δ; CK1δ residual activity) was 86 ± 1.6% and the IC50 (truncated CK1δ) was over 40 µM.
A Ki (human recombinant A2AAR) of 36 ± 9 nM, a Ki (human recombinant A3AR) of 17 ± 2 nM and a Ki (human recombinant A1AR) of 53 ± 9 nM were found for `Nc1nc(Cl)nc2c1nc(-c1cccs1)n2C1CCCC1` [Compound 9, 2-chloro-9-cyclopentyl-8-(thiophen-2-yl)-9H-purin-6-amine] in this work. It also gave a melting point of 158 to 159 °C, a remaining activity at 40 µM (truncated CK1δ; CK1δ residual activity) of 90 ± 4.6% and an IC50 (truncated CK1δ) of over 40 µM.
A Ki (human recombinant A2AAR) of 157 ± 40 nM, a Ki (human recombinant A3AR) of 298 ± 47 nM and a Ki (human recombinant A1AR) of 3960 ± 800 nM were found for `Nc1nc(NCc2ccccc2)nc2c1ncn2C1CCCC1` [Compound 10, N^2-benzyl-9-cyclopentyl-9H-purine-2,6-diamine] in this work. For the same molecule, the remaining activity at 10 µM (truncated CK1δ; [1]) was 48 ± 3.5%, the remaining activity at 40 µM (truncated CK1δ; CK1δ residual activity) was 30 ± 4.1% and the IC50 (truncated CK1δ) was 5.3 ± 1 µM.
A Ki (human recombinant A2AAR) of 12 ± 3 nM, a Ki (human recombinant A3AR) of 49 ± 8 nM and a Ki (human recombinant A1AR) of 580 ± 46 nM were found for `Nc1nc(NCCc2ccccc2)nc2c1ncn2C1CCCC1` [Compound 11, 9-Cyclopentyl-N^2-phenethyl-9H-purine-2,6-diamine] in this work. For the same molecule, the remaining activity at 40 µM (truncated CK1δ; CK1δ residual activity) was 88 ± 2.9% and the IC50 (truncated CK1δ) was over 40 µM.
A Ki (human recombinant A2AAR) of 3260 ± 626 nM, a Ki (human recombinant A3AR) of 1138 ± 4 nM and a Ki (human recombinant A1AR) of over 30000 nM were found for `Clc1nc(NCc2nc3ccccc3[nH]2)c2ncn(C3CCCC3)c2n1` [Compound 15, N-((1H-benzo[d]imidazol-2-yl)methyl)-2-chloro-9-cyclopentyl-9H-purin-6-amine] in this work. For the same molecule, the remaining activity at 10 µM (truncated CK1δ; [1]) was 24 ± 14%, the remaining activity at 40 µM (truncated CK1δ; CK1δ residual activity) was 22 ± 13% and the IC50 (truncated CK1δ) was 1.53 ± 0.4 µM.
